According to patent USH1209H, “No-carrier-added (18F)-N-methylspiroperidol” (The United States of America as represented by the United …, priority 1985, dated 1993):
Read-outs that look alike come from different tables or passages of the source.

Tests used:
[1] = Baboon plasma analyses (total plasma radioactivity clearance and unchanged radioligand); conditions: for remaining at 40 s / remaining at 4 min / remaining at 10 min / remaining at 0.5 h / remaining at 1 h / remaining at 2 h / remaining at 3 h / remaining at 4 h: plasma; for remaining at 40 s: 0.67 min after injection; for remaining at 4 min: 4.0 min after injection; for remaining at 0.5 h: 30 min after injection; for remaining at 1 h: 60 min after injection; for remaining at 2 h: 120 min after injection; for remaining at 3 h: 180 min after injection; for remaining at 4 h: 240 min after injection
Excerpt: (§1) A young adult (12 kg) female baboon (Papio anubis) was anesthesized initially with ketamine and subsequently maintained under halothane/nitrous oxide anesthesia for two PETT studies. […] Pett scans were made continually for 4 hrs from the time of radioisotope injection.
Blood was sampled from the femoral artery at initial intervals of 5 secs. Aliquots of plasma were counted to determine the total plasma radioactivity of clearance curves.

[2] = Tissue distribution of radioactivity in mice; assay type: in vivo, mouse; conditions: for tissue uptake at 5 min / tissue uptake at 1 h / tissue uptake at 2 h: read-out: Tissue distribution, % Dose/g
Excerpt: As noted in Example 3 for the rat, the mouse brain uptake of radioactivity was higher for radiolabeled N-methylspiroperidol (1.1% of the administered dose).

dopamine receptors = assay: PETT baboon studies: striatum and cerebellum radioactivity after i.v. [^18 F]-N-methylspiroperidol, with (-)- or (+)-butaclamol pretreatment
Excerpt: as §1

[3] = Metabolic stability and uptake in rat brain (striatum, cerebellum); assay type: in vivo, rat (male BNL R strain); conditions: for remaining at 1 h / remaining at 4 h: iv, n = 2; for remaining at 1 h: 1 h after injection; for remaining at 4 h: 4 h after injection
[4] = baboon, iv, % [^18 F]-N-Methylspiroperidol in Plasma, baboon plasma
[5] = baboon, iv, % of ^18 F in CH3 CN as [^18 F]-N-Methylspiroperidol, baboon plasma

CN1CN(c2ccccc2)C2(CCN(CCCC(=O)c3ccc([18F])cc3)CC2)C1=O [[^18 F]-N-methylspiroperidol]
time course of distribution compared with [^18 F]spiroperidol ([1]; Example 2): more rapid
appearance of peripheral radioactive metabolites compared with [^18 F]spiroperidol ([1]; baboon plasma): more rapid
time for blood radioactivity to drop below the brain concentration ([1]; baboon, after injection): ≤ 90 s
remaining at 40 s [1, 4]: 81%
remaining at 4 min [1, 4]: 66%
remaining at 10 min ([1]; baboon, iv, % [^18 F]-N-Methylspiroperidol in Plasma, baboon plasma, 10 min after injection): 43%
remaining at 0.5 h [1, 4]: 18%
remaining at 1 h [1, 4]: 18%
remaining at 2 h [1, 4]: 11%
remaining at 3 h [1, 4]: 11%
remaining at 4 h [1, 4]: 9.4%
remaining at 40 s [1, 5]: 88%
remaining at 4 min [1, 5]: 78%
remaining at 10 min ([1]; baboon, iv, % of ^18 F in CH3 CN as [^18 F]-N-Methylspiroperidol, baboon plasma, 10 min after injection): 60%
remaining at 0.5 h [1, 5]: 32%
remaining at 1 h [1, 5]: 36%
remaining at 2 h [1, 5]: 26%
remaining at 3 h [1, 5]: 29%
remaining at 4 h [1, 5]: 26%
remaining at 10 min ([1]; baboon, plasma radioactivity due to unaltered radioligand, baboon plasma, 10 mins after injection): 43%
blood clearance ([1]; baboon, total plasma radioactivity): very rapid
tissue distribution of radioactivity compared with that reported for N-[^11 C] methylspiroperidol ([2]; mouse): very little difference
tissue uptake at 5 min ([2]; mouse blood, 5 min, mean of three mice, range 1.0-1.5): 1.2 %ID/g
tissue uptake at 1 h ([2]; mouse blood, 60 min, mean of three mice, range 0.40-0.50): 0.45 %ID/g
tissue uptake at 2 h ([2]; mouse blood, 120 min, mean of four mice, range 0.15-0.27): 0.19 %ID/g
mouse brain uptake of radioactivity ([2]; mouse brain): 1.1 % of the administered dose
Tissue distribution, % Dose/Organ ([2]; mouse brain, 5 min, mean of three mice, range 1.0-1.1): 1.1 % Dose/Organ
tissue uptake at 5 min ([2]; mouse brain, 5 min, mean of three mice, range 2.2-2.4): 2.3 %ID/g
Tissue distribution, % Dose/Organ ([2]; mouse brain, 60 min, mean of three mice, range 0.60-0.74): 0.68 % Dose/Organ
tissue uptake at 1 h ([2]; mouse brain, 60 min, mean of three mice, range 1.3-1.8): 1.5 %ID/g
Tissue distribution, % Dose/Organ ([2]; mouse brain, 120 min, mean of four mice, range 0.43-0.68): 0.57 % Dose/Organ
tissue uptake at 2 h ([2]; mouse brain, 120 min, mean of four mice, range 1.1-1.6): 1.3 %ID/g
Tissue distribution, % Dose/Organ ([2]; mouse heart, 5 min, mean of three mice, range 0.35-0.42): 0.37 % Dose/Organ
tissue uptake at 5 min ([2]; mouse heart, 5 min, mean of three mice, range 3.2-3.4): 3.3 %ID/g
Tissue distribution, % Dose/Organ ([2]; mouse heart, 60 min, mean of three mice, range 0.064-0.076): 0.072 % Dose/Organ
tissue uptake at 1 h ([2]; mouse heart, 60 min, mean of three mice, range 0.59-0.65): 0.61 %ID/g
Tissue distribution, % Dose/Organ ([2]; mouse heart, 120 min, mean of four mice, range 0.020-0.030): 0.026 % Dose/Organ
tissue uptake at 2 h ([2]; mouse heart, 120 min, mean of four mice, range 0.18-0.35): 0.24 %ID/g
Tissue distribution, % Dose/Organ ([2]; mouse kidneys, 5 min, mean of three mice, range 4.2-4.8): 4.5 % Dose/Organ
tissue uptake at 5 min ([2]; mouse kidneys, 5 min, mean of three mice, range 11-13): 12 %ID/g
Tissue distribution, % Dose/Organ ([2]; mouse kidneys, 60 min, mean of three mice, range 1.1-1.3): 1.2 % Dose/Organ
tissue uptake at 1 h ([2]; mouse kidneys, 60 min, mean of three mice, range 3.0-4.0): 3.4 %ID/g
Tissue distribution, % Dose/Organ ([2]; mouse kidneys, 120 min, mean of four mice, range 0.40-0.57): 0.46 % Dose/Organ
tissue uptake at 2 h ([2]; mouse kidneys, 120 min, mean of four mice, range 1.2-1.8): 1.5 %ID/g
tissue uptake at 5 min ([2]; mouse liver, 5 min, mean of three mice, range 5.2-5.7): 5.4 %ID/g
Tissue distribution, % Dose/Organ ([2]; mouse liver, 5 min, mean of three mice, range 8.2-8.3): 8.2 % Dose/Organ
tissue uptake at 1 h ([2]; mouse liver, 60 min, mean of three mice, range 2.4-3.4): 2.9 %ID/g
Tissue distribution, % Dose/Organ ([2]; mouse liver, 60 min, mean of three mice, range 3.8-4.1): 4.0 % Dose/Organ
tissue uptake at 2 h ([2]; mouse liver, 120 min, mean of four mice, range 1.2-1.9): 1.4 %ID/g
Tissue distribution, % Dose/Organ ([2]; mouse liver, 120 min, mean of four mice, range 1.5-1.8): 1.6 % Dose/Organ
Tissue distribution, % Dose/Organ ([2]; mouse lungs, 5 min, mean of three mice, range 2.0-2.1): 2.0 % Dose/Organ
tissue uptake at 5 min ([2]; mouse lungs, 5 min, mean of three mice, range 11-14): 13 %ID/g
Tissue distribution, % Dose/Organ ([2]; mouse lungs, 60 min, mean of three mice, range 0.24-0.29): 0.27 % Dose/Organ
tissue uptake at 1 h ([2]; mouse lungs, 60 min, mean of three mice, range 1.6-2.3): 1.9 %ID/g
Tissue distribution, % Dose/Organ ([2]; mouse lungs, 120 min, mean of four mice, range 0.09-0.16): 0.12 % Dose/Organ
tissue uptake at 2 h ([2]; mouse lungs, 120 min, mean of four mice, range 0.70-1.50): 0.95 %ID/g
Tissue distribution, % Dose/Organ ([2]; mouse ovaries, 60 min, mean of three mice, range 0.028-0.057): 0.040 % Dose/Organ
Tissue distribution, % Dose/Organ ([2]; mouse ovaries, 120 min, mean of four mice, range 0.009-0.022): 0.014 % Dose/Organ
Tissue distribution, % Dose/Organ ([2]; mouse small intestine, 5 min, mean of three mice, range 3.2-6.8): 5.3 % Dose/Organ
tissue uptake at 5 min ([2]; mouse small intestine, 5 min, mean of three mice, range 4.0-4.8): 4.3 %ID/g
Tissue distribution, % Dose/Organ ([2]; mouse small intestine, 60 min, mean of three mice, range 1.6-3.6): 2.9 % Dose/Organ
tissue uptake at 1 h ([2]; mouse small intestine, 60 min, mean of three mice, range 1.7-3.4): 2.5 %ID/g
Tissue distribution, % Dose/Organ ([2]; mouse small intestine, 120 min, mean of four mice, range 0.7-1.9): 1.3 % Dose/Organ
tissue uptake at 2 h ([2]; mouse small intestine, 120 min, mean of four mice, range 0.8-1.7): 1.3 %ID/g
Tissue distribution, % Dose/Organ ([2]; mouse spleen, 5 min, mean of three mice, range 0.82-1.05): 0.95 % Dose/Organ
tissue uptake at 5 min ([2]; mouse spleen, 5 min, mean of three mice, range 4.7-6.5): 5.8 %ID/g
Tissue distribution, % Dose/Organ ([2]; mouse spleen, 60 min, mean of three mice, range 0.25-0.28): 0.26 % Dose/Organ
tissue uptake at 1 h ([2]; mouse spleen, 60 min, mean of three mice, range 1.1-1.9): 1.6 %ID/g
Tissue distribution, % Dose/Organ ([2]; mouse spleen, 120 min, mean of four mice, range 0.043-0.073): 0.062 % Dose/Organ
tissue uptake at 2 h ([2]; mouse spleen, 120 min, mean of four mice, range 0.40-0.73): 0.57 %ID/g
specifically bound component of radioactivity in the striatum (striatum minus cerebellum) (dopamine receptors; 4 hrs after injection): still increasing at 4 hrs after injection
striatum and cerebellum radioactivity curves, access to specific binding sites (dopamine receptors; after 0.5 mg/kg (+)-butaclamol pretreatment): no longer had access to specific binding sites
radioactivity in the cerebellum (dopamine receptors; after the first few minutes, control study): declined rapidly in the cerebellum
absolute striatal uptake, excess over [^18 F]spiroperidol (dopamine receptors; control study, (-)-butaclamol 0.5 mg/kg pretreatment): more than two-fold
Influx into striatum and cerebellum (dopamine receptors; first few minutes, control study): equal for the first few minutes
radioactivity in the striatum (dopamine receptors; up to 4 hrs, control study): increasing for up to 4 hrs in the striatum
remaining at 1 h ([3]; rat cerebellum, ind. values 90, 90): 90%
remaining at 4 h ([3]; rat cerebellum, ind. values 85, 85): 85%
remaining at 1 h ([3]; rat striatum, ind. values 95, 96): 96%
remaining at 4 h ([3]; rat striatum, ind. values 98, 97): 98%
metabolism in the rat brain ([3]; rat brain): very little metabolism
